According to US20240002350A1, “PROTEIN AND LIPID THERAPEUTIC TARGETS” (UNIVERSITY OF PITTSBURGH-OF THE COMMONWEALTH SYSTEM OF …, priority 2020, published 2024):

Each compound was assayed on 15LOX/PEBP1 (assay: Potency of 15LOX/PEBP1 inhibitors with anti-ferroptotic effect (Table 1)).
Format: cell-based
Text: Development and testing of new compounds that inhibit 15LOX/PEBP1 complex activity. A combination of computational and experimental studies are used. […] Computer modeling considers specific features of organization of 15LOX/PEBP1 complexes and positioning of AA-PE as well as regio-specific oxygenation of AA-residues at 15th carbon. […] It has been shown that: i) binding interface of 15LOX in 15LOX/PEBP1 complex includes a helix on 15LOX (α2) and kinase binding epitope (D144, H145, R146) on PEBP1 (FIG. 8); and ii) interfacial interactions play a pivotal role in allosterically altering conformational dynamics of 15LOX in complex, and its substrate specificity. Analysis of change in access to catalytic site upon PEBP1 binding, using elastic network models indicates needed sites at 15LOX/PEBP1 binding interface. Dynamics simulations are also performed, for 15LOX alone and 15LOX/PEBP1 complex. An effective inhibitor, NCG-01, with in vivo activity has been indicated. Several other 15LOX/PEBP1 inhibitors with anti-ferroptotic effect (FIG. 9) have been identified. To test the effectiveness of compounds identified from the computational screen, RSL3 and mechanical stretch models with LDH and PI assays as a primary outcome are performed. The compounds that inhibit cell death by at least 50% are then evaluated for their effects on AA-PE and AA oxidation by 15LOX/PEBP1 complex and 15LOX alone, respectively, by LC-MS. Evaluation of the effect of compounds in suppressing AA-PE-OOH formation in cells upon proferroptotic stimuli is also performed.

How did the Potency turn out when `FC(F)(F)c1ccc(-c2cn(-c3ccccc3)c(SCc3ccccc3)n2)cc1` [Compound 4, 2-(benzylthio)-1-phenyl-4-(4-(trifluoromethyl)phenyl)-1H-imidazole] was run?
Its Potency is “+ (+ > 1 μM)”.

Which Potency does the source give for `FC(F)(F)c1ccc(CSc2nc(-c3ccc(C(F)(F)F)cc3)cn2-c2ccccc2)cc1` [Compound 6, 1-phenyl-2-((4-(trifluoromethyl)benzyl)thio)-4-(4-(trifluoromethyl)phenyl)-1H-imidazole] here?
Its Potency is “+ (+ > 1 μM)”.

With `Fc1ccc(-n2cc(-c3ccccc3)nc2SCc2ccc(C(F)(F)F)cc2)cc1` [Compound 11, 1-(4-fluorophenyl)-4-phenyl-2-((4-(trifluoromethyl)benzyl)thio)-1H-imidazole] as the compound, how does the Potency read?
Its Potency is “+ (+ > 1 μM)”.

Which Potency does the source give for `FC(F)(F)c1ccc(CSc2nc(-c3ccccc3)cn2-c2ccc(Cl)cc2)cc1` [Compound 13, 1-(4-chlorophenyl)-4-phenyl-2-((4-(trifluoromethyl)benzyl)thio)-1H-imidazole] here?
Its Potency is “+ (+ > 1 μM)”.

How did the Potency turn out when `Fc1ccccc1-n1cc(-c2ccccc2)nc1SCc1ccc(C(F)(F)F)cc1` [Compound 14, 1-(2-fluorophenyl)-4-phenyl-2-((4-(trifluoromethyl)benzyl)thio)-1H-imidazole] was run?
Its Potency is “+ (+ > 1 μM)”.

How did the Potency turn out when `Cc1ccc(-n2cc(-c3ccccc3)nc2SCc2ccc(C(F)(F)F)cc2)cc1` [Compound 16, 4-phenyl-1-(p-tolyl)-2-((4-(trifluoromethyl)benzyl)thio)-1H-imidazole] was run?
Its Potency is “+ (+ > 1 μM)”.

`FC(F)(F)c1ccc(CSc2nc(-c3ccccc3)cn2-c2cccc(Cl)c2)cc1` [Compound 17, 1-(3-chlorophenyl)-4-phenyl-2-((4-(trifluoromethyl)benzyl)thio)-1H-imidazole] was tested. Which Potency did it give?
Its Potency is “+ (+ > 1 μM)”.

`FC(F)(F)c1ccc(CSc2nc(-c3ccccc3)cn2-c2ccccc2)cc1` [Compound 20, 1,4-diphenyl-2-((4-(trifluoromethyl)benzyl)thio)-1H-imidazole] was tested. Which Potency did it give?
Its Potency is “+ (+ > 1 μM)”.

Which Potency does the source give for `Fc1cc(F)cc(-n2cc(-c3ccccc3)nc2SCc2ccc(C(F)(F)F)cc2)c1` [Compound 21, 1-(3,5-difluorophenyl)-4-phenyl-2-((4-(trifluoromethyl)benzyl)thio)-1H-imidazole] here?
The Potency was “dead”.

How did the Potency turn out when `Cc1cccc(-n2cc(-c3ccccc3)nc2SCc2ccc(C(F)(F)F)cc2)c1` [Compound 22, 4-phenyl-1-(m-tolyl)-2-((4-(trifluoromethyl)benzyl)thio)-1H-imidazole] was run?
Its Potency is “+ (+ > 1 μM)”.

How did the Potency turn out when `C[S+](=O)([O-])c1cccc(-n2cc(-c3ccccc3)nc2SCc2ccc(C(F)(F)F)cc2)c1` [Compound 23, 1-(3-(methylsulfonyl)phenyl)-4-phenyl-2-((4-(trifluoromethyl)benzyl)thio)-1H-imidazole] was run?
The Potency was “+ (+ > 1 μM)”.

How did the Potency turn out when `FC(F)(F)c1ccc(CSc2nc(-c3ccccc3)cn2-c2cccc(Br)c2)cc1` [Compound 24, 1-(3-bromophenyl)-4-phenyl-2-((4-(trifluoromethyl)benzyl)thio)-1H-imidazole] was run?
The Potency was “+ (+ > 1 μM)”.

Which Potency does the source give for `FC(F)(F)c1ccc(CSc2nc(-c3ccccc3)cn2-c2cccc(C(F)(F)F)c2)cc1` [Compound 25, 4-phenyl-2-((4-(trifluoromethyl)benzyl)thio)-1-(3-(trifluoromethyl)phenyl)-1H-imidazole] here?
Its Potency is “+ (+ > 1 μM)”.

Which Potency does the source give for `Fc1cccc(-n2cc(-c3ccccc3)nc2SCc2ccc(C3(C(F)(F)F)N=N3)cc2)c1` [Compound 26, 1-(3-fluorophenyl)-4-phenyl-2-((4-(3-(trifluoromethyl)-3H-diazirin-3-yl)benzyl)thio)-1H-imidazole] here?
The Potency was “+ (+ > 1 μM)”.

For `Fc1cccc(-n2cc(-c3ccc(Br)cc3)nc2SCc2ccccc2)c1` [Compound 27, 2-(benzylthio)-4-(4-bromophenyl)-1-(3-fluorophenyl)-1H-imidazole], which Potency is on record?
The Potency was “+ (+ > 1 μM)”.

`FC(F)Oc1cccc(-n2cc(-c3ccccc3)nc2SCc2ccc(C(F)(F)F)cc2)c1` [Compound 28, 1-(3-(difluoromethoxy)phenyl)-4-phenyl-2-((4-(trifluoromethyl)benzyl)thio)-1H-imidazole] was tested. Which Potency did it give?
The Potency was “+ (+ > 1 μM)”.

With `COc1cccc(-n2cc(-c3ccccc3)nc2SCc2ccc(C(F)(F)F)cc2)c1` [Compound 29, 1-(3-methoxyphenyl)-4-phenyl-2-((4-(trifluoromethyl)benzyl)thio)-1H-imidazole] as the compound, how does the Potency read?
The Potency was “+ (+ > 1 μM)”.

`FC(F)(F)Oc1cccc(-n2cc(-c3ccccc3)nc2SCc2ccc(C(F)(F)F)cc2)c1` [Compound 30, 4-phenyl-1-(3-(trifluoromethoxy)phenyl)-2-((4-(trifluoromethyl)benzyl)thio)-1H-imidazole] was tested. Which Potency did it give?
Its Potency is “+ (+ > 1 μM)”.

With `O=C(Nc1nc(-c2ccccc2)cn1-c1cccc(F)c1)c1ccc(C(F)(F)F)cc1` [Compound 31, N-(1-(3-fluorophenyl)-4-phenyl-1H-imidazol-2-yl)-4-(trifluoromethyl)benzamide] as the compound, how does the Potency read?
Its Potency is “+ (+ > 1 μM)”.

For `Fc1cccc(-n2cc(-c3ccccc3)nc2NCc2ccc(C(F)(F)F)cc2)c1` [Compound 32, 1-(3-fluorophenyl)-4-phenyl-N-(4-(trifluoromethyl)benzyl)-1H-imidazol-2-amine], which Potency is on record?
Its Potency is “++ (++ = 101-1000 nM)”.

How did the Potency turn out when `Cc1ccc(CSc2nc(-c3ccccc3)cn2-c2cccc(F)c2)cc1` [Compound 33, 1-(3-fluorophenyl)-2-((4-methylbenzyl)thio)-4-phenyl-1H-imidazole] was run?
Its Potency is “+ (+ > 1 μM)”.

Which Potency does the source give for `Fc1cccc(-n2cc(-c3ccccc3)nc2SCc2ccc(Br)cc2)c1` [Compound 34, 2-((4-bromobenzyl)thio)-1-(3-fluorophenyl)-4-phenyl-1H-imidazole] here?
The Potency was “+ (+ > 1 μM)”.

Which Potency does the source give for `Fc1cccc(-n2cc(-c3ccccc3)nc2SCc2cccc(C(F)(F)F)c2)c1` [Compound 35, 1-(3-fluorophenyl)-4-phenyl-2-((3-(trifluoromethyl)benzyl)thio)-1H-imidazole] here?
The Potency was “+ (+ > 1 μM)”.

For `Fc1cccc(-n2cc(-c3ccccc3)nc2SCc2ccc(OC(F)(F)F)cc2)c1` [Compound 36, 1-(3-fluorophenyl)-4-phenyl-2-((4-(trifluoromethoxy)benzyl)thio)-1H-imidazole], which Potency is on record?
The Potency was “+ (+ > 1 μM)”.

For `Fc1cccc(-n2cc(-c3ccccc3)nc2SCc2ccccc2)c1` [Compound 37, 2-(benzylthio)-1-(3-fluorophenyl)-4-phenyl-1H-imidazole], which Potency is on record?
Its Potency is “+ (+ > 1 μM)”.

How did the Potency turn out when `CC(Sc1nc(-c2ccccc2)cn1-c1cccc(F)c1)c1ccccc1` (stereo not drawn) [Compound 38, 1-(3-fluorophenyl)-4-phenyl-2-((1-phenylethyl)thio)-1H-imidazole] was run?
The Potency was “+ (+ > 1 μM)”.

For `Fc1cccc(-n2cc(-c3ccccc3)nc2SCc2cccc(Cl)c2)c1` [Compound 39, 2-((3-chlorobenzyl)thio)-1-(3-fluorophenyl)-4-phenyl-1H-imidazole], which Potency is on record?
The Potency was “+ (+ > 1 μM)”.

For `CS(=O)(=O)c1ccc(CSc2nc(-c3ccccc3)cn2-c2cccc(F)c2)cc1` [Compound 40, 1-(3-fluorophenyl)-2-((4-(methylsulfonyl)benzyl)thio)-4-phenyl-1H-imidazole], which Potency is on record?
The Potency was “+ (+ > 1 μM)”.

Which Potency does the source give for `Fc1cccc(-n2cc(-c3ccccc3)nc2SCc2ccccc2C(F)(F)F)c1` [Compound 41, 1-(3-fluorophenyl)-4-phenyl-2-((2-(trifluoromethyl)benzyl)thio)-1H-imidazole] here?
Its Potency is “+ (+ > 1 μM)”.

For `Fc1cccc(-n2cc(-c3ccccc3)nc2SCc2ccc(Cl)cc2)c1` [Compound 42, 2-((4-chlorobenzyl)thio)-1-(3-fluorophenyl)-4-phenyl-1H-imidazole], which Potency is on record?
Its Potency is “+ (+ > 1 μM)”.
